Assay results from US12660819B2, “Herbicidal derivatives” (SYNGENTA CROP PROTECTION AG, priority 2020, dated 2026).

Tests used:
Format in all cases: in vivo
[1] = system: Ipomoea hederacea (IPOHE); assay: Pre-emergence Test (glasshouse, percentage damage to the plant); conditions: 1000 g/ha unless otherwise stated, five-point scale
Zea mays (ZEAMX) [2] = assay: as above; conditions: 1000 g/ha unless otherwise stated, five-point scale
[3] = system: Abutilon theophrasti (ABUTH); assay: Post-emergence Test (glasshouse, percentage damage to the plant); conditions: post-emergence spray, 1000 g/ha unless otherwise stated, evaluated after 13 days
How it was run: (§1)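 After sowing in standard soil, pots were kept at 24/16 °C (day/night), 14 h light and 65% humidity. They were sprayed at 1000 g/ha unless otherwise stated, watered twice daily, and assessed for percentage damage at 13 days on a 1–5 scale.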

[4] = system: Ipomoea hederacea (IPOHE); assay: as above; conditions: post-emergence spray, 1000 g/ha unless otherwise stated, evaluated after 13 days
How it was run: (§2)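 Seeds sown in pots in glasshouse (24/16 °C day/night, 14 h light, 65% humidity), then sprayed with compound at 1000 g/ha unless stated, from acetone/water 50:50 with 0.5% Tween 20. Damage assessed 13 days later on five-point scale (1=0–20% to 5=81–100%).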

Zea mays (ZEAMX) [5] = assay: as above; conditions: post-emergence spray, 1000 g/ha unless otherwise stated, evaluated after 13 days
How it was run: as §2

[6] = system: Amaranthus retoflexus (AMARE); assay: as above; conditions: post-emergence spray, 1000 g/ha unless otherwise stated, evaluated after 13 days
How it was run: as §1

[7] = system: Echinochloa crus-galli (ECHCG); assay: as above; conditions: post-emergence spray, 1000 g/ha unless otherwise stated, evaluated after 13 days
How it was run: as §1

Setaria faberi (SETFA) [8] = assay: as above; conditions: post-emergence spray, 1000 g/ha unless otherwise stated, evaluated after 13 days
How it was run: as §2

[9] = system: Amaranthus retoflexus (AMARE); assay: Pre-emergence Test (glasshouse, percentage damage to the plant); conditions: 1000 g/ha unless otherwise stated, five-point scale
Setaria faberi (SETFA) [10] = assay: as above; conditions: 1000 g/ha unless otherwise stated, five-point scale
[11] = system: Echinochloa crus-galli (ECHCG); assay: as above; conditions: 1000 g/ha unless otherwise stated, five-point scale
[12] = system: Abutilon theophrasti (ABUTH); assay: as above; conditions: 1000 g/ha unless otherwise stated, five-point scale

Structure (SMILES)	percentage damage to the plant, IPOHE [1]	percentage damage to the plant, ZEAMX (Zea mays (ZEAMX) [2])	Post-emergence Test ABUTH, percentage damage to the plant (five-point scale) [3]	Post-emergence Test IPOHE, percentage damage to the plant (five-point scale) [4]	Post-emergence Test ZEAMX, percentage damage to the plant (five-point scale) (Zea mays (ZEAMX) [5])	Post-emergence Test AMARE, percentage damage to the plant (five-point scale) [6]	Post-emergence Test ECHCG, percentage damage to the plant (five-point scale) [7]	Post-emergence Test SETFA, percentage damage to the plant (five-point scale) (Setaria faberi (SETFA) [8])	percentage damage to the plant, AMARE [9]	percentage damage to the plant, SETFA (Setaria faberi (SETFA) [10])	percentage damage to the plant, ECHCG [11]	percentage damage to the plant, ABUTH [12]
CCOc1cc(-c2c(C)n(CC)c(-c3ccc(Cl)c(Cl)c3)c(C(=O)O)c2=O)ccc1C(F)(F)F [Compound 65, 2-(3,4-dichlorophenyl)-5-[3-ethoxy-4-(trifluoromethyl)phenyl]-1-ethyl-6-methyl-4-oxo-pyridine-3-carboxylic acid]	1 (1=0-20%)	1 (1=0-20%)	1 (1=0-20%)	1 (1=0-20%)	1 (1=0-20%)	1 (1=0-20%)	1 (1=0-20%)	1 (1=0-20%)	1 (1=0-20%)	1 (1=0-20%)	1 (1=0-20%)	1 (1=0-20%)
CCn1c(C)c(-c2cc(C)cc(C#N)c2)c(=O)c(C(=O)O)c1-c1ccc(Cl)c(Cl)c1 [Compound 80, 5-(3-cyano-5-methyl-phenyl)-2-(3,4-dichlorophenyl)-1-ethyl-6-methyl-4-oxo-pyridine-3-carboxylic acid]	1 (1=0-20%)	1 (1=0-20%)	3 (3=41-60%)	1 (1=0-20%)	1 (1=0-20%)	3 (3=41-60%)	1 (1=0-20%)	3 (3=41-60%)	1 (1=0-20%)	4 (4=61-80%)	1 (1=0-20%)	1 (1=0-20%)
CCn1c(C)c(-c2ccnc(OC)c2)c(=O)c(C(=O)O)c1-c1ccc(Cl)c(Cl)c1 [Compound 53, 2-(3,4-dichlorophenyl)-1-ethyl-5-(2-methoxy-4-pyridyl)-6-methyl-4-oxo-pyridine-3-carboxylic acid]	3 (3=41-60%)	1 (1=0-20%)	4 (4=61-80%)	2 (2=21-40%)	2 (2=21-40%)	3 (3=41-60%)	3 (3=41-60%)	4 (4=61-80%)	1 (1=0-20%)	4 (4=61-80%)	3 (3=41-60%)	3 (3=41-60%)
CCOC(=O)c1c(-c2ccc(Br)cc2F)n(CC)c(C)c(-c2ccc(Cl)cc2)c1=O [Compound 137, ethyl 2-(4-bromo-2-fluoro-phenyl)-5-(4-chlorophenyl)-1-ethyl-6-methyl-4-oxo-pyridine-3-carboxylate]	0	0	3 (3=41-60%)	3 (3=41-60%)	2 (2=21-40%)	3 (3=41-60%)	4 (4=61-80%)	3 (3=41-60%)	5 (5=81-100%)	1 (1=0-20%)	0	0
CCn1c(C)c(-c2ccc(OC(F)(F)F)cc2)c(=O)c(C(=O)O)c1-c1ccc(Cl)c(Cl)c1 [Compound 95, 2-(3,4-dichlorophenyl)-1-ethyl-6-methyl-4-oxo-5-[4-(trifluoromethoxy)phenyl]pyridine-3-carboxylic acid]	1 (1=0-20%)	1 (1=0-20%)	3 (3=41-60%)	2 (2=21-40%)	2 (2=21-40%)	3 (3=41-60%)	3 (3=41-60%)	3 (3=41-60%)	1 (1=0-20%)	4 (4=61-80%)	2 (2=21-40%)	1 (1=0-20%)
CCn1c(C)c(-c2ccc(S(=O)(=O)CC)cc2)c(=O)c(C(=O)O)c1-c1ccc(Cl)c(Cl)c1 [Compound 66, 2-(3,4-dichlorophenyl)-1-ethyl-5-(4-ethylsulfonylphenyl)-6-methyl-4-oxo-pyridine-3-carboxylic acid]	1 (1=0-20%)	1 (1=0-20%)	3 (3=41-60%)	2 (2=21-40%)	1 (1=0-20%)	1 (1=0-20%)	2 (2=21-40%)	3 (3=41-60%)	1 (1=0-20%)	4 (4=61-80%)	2 (2=21-40%)	1 (1=0-20%)
CCn1c(C)c(-c2cccc(SC)c2)c(=O)c(C(=O)O)c1-c1ccc(Cl)c(Cl)c1 [Compound 114, 2-(3,4-dichlorophenyl)-1-ethyl-6-methyl-5-(3-methylsulfanylphenyl)-4-oxo-pyridine-3-carboxylic acid]	1 (1=0-20%)	1 (1=0-20%)	1 (1=0-20%)	1 (1=0-20%)	1 (1=0-20%)	1 (1=0-20%)	1 (1=0-20%)	1 (1=0-20%)	1 (1=0-20%)	1 (1=0-20%)	1 (1=0-20%)	1 (1=0-20%)
CCn1c(C)c(-c2cccc(C#N)c2)c(=O)c(C(=O)O)c1-c1ccc(Cl)c(Cl)n1 [Compound 147, 5-(3-cyanophenyl)-2-(5,6-dichloro-2-pyridyl)-1-ethyl-6-methyl-4-oxo-pyridine-3-carboxylic acid]	0	0	2 (2=21-40%)	2 (2=21-40%)	2 (2=21-40%)	0	2 (2=21-40%)	2 (2=21-40%)	0	0	0	0
CCn1c(C)c(-c2ccc(Cl)c(C#N)c2)c(=O)c(C(=O)O)c1-c1ccc(Cl)c(Cl)c1 [Compound 57, 5-(4-chloro-3-cyano-phenyl)-2-(3,4-dichlorophenyl)-1-ethyl-6-methyl-4-oxo-pyridine-3-carboxylic acid]	2 (2=21-40%)	2 (2=21-40%)	3 (3=41-60%)	2 (2=21-40%)	2 (2=21-40%)	4 (4=61-80%)	3 (3=41-60%)	4 (4=61-80%)	3 (3=41-60%)	4 (4=61-80%)	3 (3=41-60%)	1 (1=0-20%)
